Source: patent US5252598A, “Labdane derivatives, a process for their preparation, and their use as medicaments” (Hoechst Aktiengesellschaft, priority 1987, dated 1993)
Values after ≈ are worked out from the molar mass of the structure shown. Where a name gives a salt, the structure may show the parent alone.

How the values were obtained:
Guinea pig atrium = experiment: Positive inotropic activity (contractility of isolated guinea pig atrium); type: cell-based; details: isolated left and right atria, Ringer's solution, 32° C., contractility recorded 7 to 10 minutes; for EC50: Cavia porcellus
Method: Guineapigs of both sexes and weighing 400 g were sacrificed, and the heart was removed and placed in Ringer's solution at room temperature. Both the left and the right atria were then isolated and fixed in an organ holder, and the preparation was placed in an organ bath containing Ringer's solution and maintained at a temperature of 32° C. Carbogen (95% O2 and 5% CO2) was then bubbled through the organ bath. The compound to be tested is dissolved directly in water together with a stoichiometric amount of 0.1N HCL or a salt thereof to give a solution of known concentration and the latter is added to the bath. The contractility of the atrium is recorded for 7 to 10 minutes on a Nihon Kohden 4-channel pen recorder with an isometric strain gage. The activity is expressed on the basis of the resulting data as the EC50.

conscious rabbits = experiment: Reduction in intraocular pressure in conscious rabbits; type: in vivo; details: rabbit, instilled into one eye
Method: For this experiment rabbits of both sexes and weighing 2 to 3 kg are used. The intraocular pressure (IOP) is measured with a Schioetz tonometer after corneal anesthesia with 2% strength novocaine solution. […] […] The IOP is measured at defined time intervals, i.e. after 0.5, 1, 2, 3, 4 and 5 hours. The percentage reduction in the IOP is calculated using the baseline value.

cats = experiment: Antihypertensive effect: blood pressure in anesthetized cats; type: in vivo; details: anesthetized cat, i.v., 1 mg/kg
Method: Cats of both sexes and weighing 3 to 4 kg were anesthetized with ether and maintained under chloralose anesthesia (70 mg/kg i.v.). Cannulas were placed in the femoral artery and in the femoral vein to record the blood pressure and to administer the medicament, respectively. The blood pressure in the femoral artery was recorded using a Statham P 23 Db pressure transducer on a Nihon-Kohden pen recorder for physiological purposes. The compound to be tested was dissolved, if a salt, in distilled water, otherwise in propylene glycol and administered intravenously. The fall in blood pressure and the duration of the hypotensive activity were determined.

| SMILES | EC50 (Guinea pig atrium) [µg/mL] | other results |
| --- | --- | --- |
| C=C[C@@]1(C)CC(=O)[C@@]2(O)[C@](C)(O1)[C@@H](OC(=O)N1CCN(C)CC1)C=C1C(C)(C)CC[C@H](O)[C@@]12C | 0.24 (≈ 0.504 µM) | – |
| C=C[C@@]1(C)CC(=O)[C@@]2(O)[C@](C)(O1)[C@@H](OC(=O)CN1CC(C)OC(C)C1)C=C1C(C)(C)CC[C@H](O)[C@@]12C (some centres unmarked) | 0.079 (≈ 0.156 µM) | – |
| C=C[C@@]1(C)CC(=O)[C@@]2(O)[C@](C)(O1)[C@@H](OC(=O)CCN1CCCCC1)C=C1C(C)(C)CC[C@H](O)[C@@]12C | 0.28 (≈ 0.572 µM) | – |
| C=C[C@@]1(C)CC(=O)[C@@]2(O)[C@](C)(O1)[C@@H](OC(=O)CCN1CCN(C)CC1)C=C1C(C)(C)CC[C@H](O)[C@@]12C | 0.3 (≈ 0.594 µM) | – |
| C=C[C@@]1(C)CC(=O)[C@@]2(O)[C@](C)(O1)[C@@H](OC(=O)CCCN1CCN(C)CC1)C=C1C(C)(C)CC[C@H](O)[C@@]12C | 0.12 (≈ 0.231 µM) | – |
| C=C[C@@]1(C)CC(=O)[C@@]2(O)[C@](C)(O1)[C@@H](OC(=O)CCCCN1CCOCC1)C=C1C(C)(C)CC[C@H](O)[C@@]12C | 0.17 (≈ 0.327 µM) | – |
| C=C[C@@]1(C)CC(=O)[C@@]2(O)[C@](C)(O1)[C@@H](OC(=O)CN1CCSCC1)C=C1C(C)(C)CC[C@H](O)[C@@]12C | 0.14 (≈ 0.284 µM) | – |
| C=C[C@@]1(C)CC(=O)[C@@]2(O)[C@](C)(O1)[C@@H](OC(=O)CN1CCC(O)(c3ccccc3)CC1)C=C1C(C)(C)CC[C@H](O)[C@@]12C | 0.3 (≈ 0.528 µM) | – |
| C=C[C@@]1(C)CC(=O)[C@@]2(O)[C@](C)(O1)[C@@H](OC(=O)COC(=O)CN1CCCCC1)C=C1C(C)(C)CC[C@H](O)[C@@]12C | 3 (≈ 5.62 µM) | – |
| C=C[C@@]1(C)CC(=O)[C@@]2(O)[C@](C)(O1)[C@@H](OC(=O)COC(=O)CN1CCOCC1)C=C1C(C)(C)CC[C@H](O)[C@@]12C | 1 (≈ 1.87 µM) | – |
| C=C[C@@]1(C)CC(=O)[C@@]2(O)[C@](C)(O1)[C@@H](OC(=O)COC(=O)CN1CC(C)OC(C)C1)C=C1C(C)(C)CC[C@H](O)[C@@]12C (some centres unmarked) | 0.72 (≈ 1.28 µM) | – |
| C=C[C@@]1(C)CC(=O)[C@@]2(O)[C@](C)(O1)[C@@H](OC(=O)COC(=O)CN1CCN(C)CC1)C=C1C(C)(C)CC[C@H](O)[C@@]12C | 0.44 (≈ 0.802 µM) | – |
| C=C[C@@]1(C)CC(=O)[C@@]2(O)[C@](C)(O1)[C@@H](OC(=O)COC(=O)CCN1CCN(C)CC1)C=C1C(C)(C)CC[C@H](O)[C@@]12C | 1 (≈ 1.78 µM) | – |
| C=C[C@@]1(C)CC(=O)[C@@]2(O)[C@](C)(O1)[C@@H](OC(=O)N1CCCC1)C=C1C(C)(C)CC[C@H](O)[C@@]12C | – | % decrease in IOD (conscious rabbits; dose percentage 1.00): 26.0%; Duration (decrease in IOD) (conscious rabbits; dose percentage 1.00): 240 min |
| C=C[C@@]1(C)CC(=O)[C@@]2(O)[C@](C)(O1)[C@@H](OC(=O)CN1CCOCC1)C=C1C(C)(C)CC[C@H](O)[C@@]12C | – | % decrease in IOD (conscious rabbits; dose percentage 2.00): 20.3%; Duration (decrease in IOD) (conscious rabbits; dose percentage 2.00): 360 min |
| C=C[C@@]1(C)CC(=O)[C@@]2(O)[C@](C)(O1)[C@@H](OC(=O)CN1CCCC1)C=C1C(C)(C)CC[C@H](O)[C@@]12C | – | Decrease in BP (cats): 40 mm Hg; Duration (hypotensive activity) (cats): 90 min |
| C=C[C@@]1(C)CC(=O)[C@@]2(O)[C@](C)(O1)[C@@H](OC(=O)CCCN(C)C)C=C1C(C)(C)CC[C@H](O)[C@@]12C [CO(CH2)3 N(CH3)2, 1α,9α-Dihydroxy-7β-(4-N,N-dimethylaminobutyryloxy)8,13-epoxylabda-5,14-dien-11-one] | 0.058 (≈ 0.125 µM) | – |
| C=C[C@@]1(C)CC(=O)[C@@]2(O)[C@](C)(O1)[C@@H](OC(=O)CCCN(CC)CC)C=C1C(C)(C)CC[C@H](O)[C@@]12C [CO(CH2)3 NEt2, 1α,9α-Dihydroxy-7β-(4-diethylaminobutyryloxy)-8,13-epoxylabda-5,14-dien-11-one] | 0.037 (≈ 0.0753 µM) | – |

| SMILES | EC50 (Guinea pig atrium) [µg/mL] | other results |
| --- | --- | --- |
| C=C[C@@]1(C)CC(=O)[C@@]2(O)[C@](C)(O1)[C@@H](OC(=O)CCCCN(C)C)C=C1C(C)(C)CC[C@H](O)[C@@]12C [CO(CH2)4 NMe2, 1α,9α-Dihydroxy-7β-(5-dimethylaminovaleryloxy)-8,13-epoxylabda-5,14-dien-11-one] | 0.755 (≈ 1.58 µM) | Guinea pig atrium EC50 (Guinea pig atrium): 0.615 µg/mL |
| C=C[C@@]1(C)CC(=O)[C@@]2(O)[C@](C)(O1)[C@@H](OC(=O)CN(CC)CC)C=C1C(C)(C)CC[C@H](O)[C@@]12C [COCH2 N(C2 H5)2, 7β-Diethylaminoacetoxy-1α,9α-dihydroxy-8,13-epoxy-labd-5,14-dien-11-one hydrochloride] | 0.72 | Decrease in BP (cats): 36 mm Hg; Duration (hypotensive activity) (cats): > 60 min |
| C=C[C@@]1(C)CC(=O)[C@@]2(O)[C@](C)(O1)[C@@H](OC(=O)COC=O)C=C1C(C)(C)CC[C@H](O)[C@@]12C [COCH2 OCHO, 1α,9α-dihydroxy-8,13-epoxy-7β-formyloxyacetoxylabda-5,14-dien-11-one] | 0.024 (≈ 0.055 µM) | – |
| C=C[C@@]1(C)CC(=O)[C@@]2(O)[C@](C)(O1)[C@@H](OC(=O)COC(=O)CN(CC)CC)C=C1C(C)(C)CC[C@H](O)[C@@]12C [COCH2 OCOCH2 NEt2, hydrochloride hydrate] | 0.018 | – |
| C=C[C@@]1(C)CC(=O)[C@@]2(O)[C@](C)(O1)[C@@H](OC(=O)COC(=O)CN(C)C)C=C1C(C)(C)CC[C@H](O)[C@@]12C [COCH2 OCOCH2 NMe2, 1α,9α-Dihydroxy-7β-(N,N-dimethylaminoacetoxy)acetoxy-8,13-epoxy-labd-5,14-dien-11-one hydrochloride] | 0.8 | – |
| C=C[C@@]1(C)CC(=O)[C@@]2(O)[C@](C)(O1)[C@@H](OC(C)=O)C=C1C(C)(C)CC[C@H](O)[C@@]12C [COCH3] | 0.028 (≈ 0.0713 µM) | – |
| C=C[C@@]1(C)CC(=O)[C@@]2(O)[C@](C)(O1)[C@@H](OC(N)=O)C=C1C(C)(C)CC[C@H](O)[C@@]12C [CONH2, 7β-Amino-carbonyloxy-1α,9α-dihydroxy-8,13-epoxy-labd-5,14-dien-11-one] | – | % decrease in IOD (conscious rabbits; dose percentage 1.00): 30.0%; Duration (decrease in IOD) (conscious rabbits; dose percentage 1.00): > 360 min |
| C=C[C@@]1(C)CC(=O)[C@@]2(O)[C@](C)(O1)[C@@H](OC(=O)NCCCC)C=C1C(C)(C)CC[C@H](O)[C@@]12C [CONH(CH2)3 CH3] | – | % decrease in IOD (conscious rabbits; dose percentage 1.00): 27.0%; Duration (decrease in IOD) (conscious rabbits; dose percentage 1.00): > 360 min |
| C=C[C@@]1(C)CC(=O)[C@@]2(O)[C@](C)(O1)[C@@H](OC(=O)NC)C=C1C(C)(C)CC[C@H](O)[C@@]12C [CONHCH3] | 0.051 (≈ 0.125 µM) | % decrease in IOD (conscious rabbits; dose percentage 1.00): 24.0%; Duration (decrease in IOD) (conscious rabbits; dose percentage 1.00): > 360 min |
| C=C[C@@]1(C)CC(=O)[C@@]2(O)[C@](C)(O1)[C@@H](OC(=O)[C@H](O)CO)C=C1C(C)(C)CC[C@H](O)[C@@]12C [drawing 82] | 0.0008 (≈ 0.00182 µM) | – |
| C=C[C@@]1(C)CC(=O)[C@@]2(O)[C@](C)(O1)[C@@H](OC(=O)N1CCOCC1)C=C1C(C)(C)CC[C@H](O)[C@@]12C [drawing 83] | 0.3 (≈ 0.647 µM) | – |
| C=C[C@@]1(C)CC(=O)[C@@]2(O)[C@](C)(O1)[C@@H](OC(=O)CN1CCCCC1)C=C1C(C)(C)CC[C@H](O)[C@@]12C [drawing 92] | 0.072 (≈ 0.151 µM) | – |
| C=C[C@@]1(C)CC(=O)[C@@]2(O)[C@](C)(O1)[C@@H](OC(=O)[C@H](O)CO)C=C1C(C)(C)CC[C@H](O)[C@@]12C [drawing 101] | – | % decrease in IOD (conscious rabbits; dose percentage 0.25): 35.0%; Duration (decrease in IOD) (conscious rabbits; dose percentage 0.25): > 360 min |
| C=C[C@@]1(C)CC(=O)[C@@]2(O)[C@](C)(O1)[C@@H](OC(=O)CN1CCN(C)CC1)C=C1C(C)(C)CC[C@H](O)[C@@]12C [drawing 104] | – | % decrease in IOD (conscious rabbits; dose percentage 2.00): 23.9%; Duration (decrease in IOD) (conscious rabbits; dose percentage 2.00): 360 min |
| C=C[C@@]1(C)CC(=O)[C@@]2(O)[C@](C)(O1)[C@@H](OC(=O)N1CCOCC1)C=C1C(C)(C)CC[C@H](O)[C@@]12C [drawing 106] | – | Decrease in BP (cats): 32 mm Hg; Duration (hypotensive activity) (cats): 45 min |
| C=C[C@@]1(C)CC(=O)[C@@]2(O)[C@](C)(O1)[C@@H](OC(=O)CN1CCCCC1)C=C1C(C)(C)CC[C@H](O)[C@@]12C [drawing 107] | – | Decrease in BP (cats): 30 mm Hg; Duration (hypotensive activity) (cats): 90 min |
| C=C[C@@]1(C)CC(=O)[C@@]2(O)[C@](C)(O1)[C@@H](OC(=O)CN1CCN(C)CC1)C=C1C(C)(C)CC[C@H](O)[C@@]12C [drawing 108] | – | Decrease in BP (cats): 40 mm Hg; Duration (hypotensive activity) (cats): > 120 min |
